In experiment [1] the test system is endothelial colony forming cells (ECFCs). Nature of the experiment: Adhesion of ECFCs on peptide-grafted PEG hydrogels (static). As to conditions: for ECFC adhesion and spreading: after 24 hours; for ECFC monolayer formation and cobble stone morphology: peptide-grafted hydrogels. Format: cell-based. From the text: ECFC adhesion on (A) CRRETAWAC (SEQ ID NO:1)-(B) PRb ([…]), —(C) P11 (SEQ ID NO: 11)-grafted PEG hydrogels.
Adhesion of ECFCs on CRRETAWAC (SEQ ID NO:1)-, PRb (SEQ ID NO:18)-, P11 (SEQ ID NO: 11)-grafted hydrogels was first accessed. […] On P11-grafted hydrogels, ECFCs aggregated to form adherent cell clumps. […] Without the ability to support cell spreading and the formation of monolayer, P11 alone could not support ECFC endothelialization which is critical for healing damaged and diseased blood vessels.

The target in experiment [2] is αvβ3 integrin (Homo sapiens, UniProt P05106+P06756). The note with it: among 12 HXXXHK hexapeptides; cited from earlier work.
Sequence of αvβ3 integrin (P06756 31-889 limits assumed): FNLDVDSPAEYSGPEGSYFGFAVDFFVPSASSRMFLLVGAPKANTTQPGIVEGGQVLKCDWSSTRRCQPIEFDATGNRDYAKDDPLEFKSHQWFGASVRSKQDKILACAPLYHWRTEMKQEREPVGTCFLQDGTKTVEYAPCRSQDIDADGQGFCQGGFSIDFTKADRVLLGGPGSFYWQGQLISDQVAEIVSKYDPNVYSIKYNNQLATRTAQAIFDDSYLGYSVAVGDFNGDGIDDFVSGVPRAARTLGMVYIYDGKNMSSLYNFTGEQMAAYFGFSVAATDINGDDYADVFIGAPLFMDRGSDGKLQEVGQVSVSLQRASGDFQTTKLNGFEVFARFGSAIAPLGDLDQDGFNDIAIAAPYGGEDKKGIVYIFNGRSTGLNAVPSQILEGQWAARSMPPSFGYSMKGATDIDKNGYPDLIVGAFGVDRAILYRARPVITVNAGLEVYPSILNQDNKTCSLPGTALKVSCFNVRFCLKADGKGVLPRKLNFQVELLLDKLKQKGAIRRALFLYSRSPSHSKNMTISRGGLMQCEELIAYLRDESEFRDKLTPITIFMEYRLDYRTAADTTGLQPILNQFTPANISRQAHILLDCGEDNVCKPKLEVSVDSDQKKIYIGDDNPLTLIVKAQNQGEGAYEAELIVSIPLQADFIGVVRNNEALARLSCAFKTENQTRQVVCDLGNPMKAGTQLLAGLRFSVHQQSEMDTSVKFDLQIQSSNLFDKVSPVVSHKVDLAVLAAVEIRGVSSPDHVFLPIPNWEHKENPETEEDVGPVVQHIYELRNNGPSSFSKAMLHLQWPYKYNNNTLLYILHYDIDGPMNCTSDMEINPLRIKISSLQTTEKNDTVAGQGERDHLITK
Sequence of αvβ3 integrin (P06756 891-1048 partner limits assumed): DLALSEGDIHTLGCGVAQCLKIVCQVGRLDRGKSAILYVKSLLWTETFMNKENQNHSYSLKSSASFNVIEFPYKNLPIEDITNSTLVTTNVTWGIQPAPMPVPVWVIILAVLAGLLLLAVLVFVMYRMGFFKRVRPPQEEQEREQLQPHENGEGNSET
Sequence of αvβ3 integrin (P05106 27-788): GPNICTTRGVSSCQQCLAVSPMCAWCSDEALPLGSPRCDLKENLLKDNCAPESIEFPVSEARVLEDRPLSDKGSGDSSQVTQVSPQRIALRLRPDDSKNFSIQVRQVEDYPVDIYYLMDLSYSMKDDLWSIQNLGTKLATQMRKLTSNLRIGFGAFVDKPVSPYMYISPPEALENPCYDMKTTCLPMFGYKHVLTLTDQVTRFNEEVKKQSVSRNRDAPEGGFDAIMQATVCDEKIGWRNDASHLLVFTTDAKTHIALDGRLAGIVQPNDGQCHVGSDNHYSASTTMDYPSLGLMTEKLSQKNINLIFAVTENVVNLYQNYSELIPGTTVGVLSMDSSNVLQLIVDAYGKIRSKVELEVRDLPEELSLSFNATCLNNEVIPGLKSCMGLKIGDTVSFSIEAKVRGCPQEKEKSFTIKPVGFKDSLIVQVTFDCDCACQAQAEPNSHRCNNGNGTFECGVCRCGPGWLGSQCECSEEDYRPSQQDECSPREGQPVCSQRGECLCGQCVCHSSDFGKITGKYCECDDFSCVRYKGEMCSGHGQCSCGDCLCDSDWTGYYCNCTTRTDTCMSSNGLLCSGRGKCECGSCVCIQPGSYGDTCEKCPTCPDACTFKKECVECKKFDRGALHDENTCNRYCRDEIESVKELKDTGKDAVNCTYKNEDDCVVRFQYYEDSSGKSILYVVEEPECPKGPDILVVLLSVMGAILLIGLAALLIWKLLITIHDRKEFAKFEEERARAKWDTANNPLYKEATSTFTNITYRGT
The test system of experiment [3] is endothelial colony forming cells (ECFCs). Nature of the experiment: ECFC rolling on peptide-grafted PEG hydrogels under shear (parallel plate flow chamber). The note with it: for ECFC rolling velocity: 0.7 μmol/mL PEG-peptide grafted hydrogel; for ECFC rolling velocity / ECFC rolling velocities / rolling velocities of ECFCs: mean±SD (n=3); for ECFC rolling velocities: FIG. 15A; for support of ECFC rolling (velocity below rolling cutoff, 40% of average fluid velocity): shear rates 20-120 s^−1; for rolling velocities of ECFCs: FIG. 13A. Format: cell-based. More on the design: ECFC rolling velocity: unit not given here. Here is the method: (§1) Umbilical cord blood ECFCs were used in this study. To create the peptide-grafted PEG surfaces, PEG-DA was first photopolymerized to form a hydrogel base. Peptides were conjugated to acryloyl-PEG-SVA to produced the PEG-peptides, and 0.7 μmol/mL of each PEG-peptide was grafted onto the surface of the PEG hydrogel base. Shear experiments were performed to examine ECFC rolling and adhesion on the hydrogel surfaces. Using a Glycotech parallel plate flow chamber, the ECFC cell suspension was sheared over the hydrogels at shear rates of 20 s^−1, 40 s^−1, 80 s^−1, and 120 s^−1. Cell rolling events were recorded at 70 fps using a high speed camera. Cell tracking was performed using ImageJ and Matlab to determine rolling velocities. Finally ECFC retention on the RGDSQ ID NO:3)-grafted PEG hydrogels was quantified under superphysiological shear stress.
To form the PEG-peptide grafting solution, the acryloyl-PEG-peptide was first dissolved in sterile PBS at the desired concentration (ranging from 0.7 mM to 5.6 mM) and the photoinitiator was added as described above. After each PEGDA hydrogel was photocrosslinked, the top plate of the mold was removed. The hydrogels were rinsed with sterile PBS and briefly dried with a stream of nitrogen to remove excess PBS on the surface of the hydrogel. The mold's 0.5 mm PDMS spacers were replaced with 0.7 mm PDMS spacers and a clean glass slide was placed on top. Then the PEG-peptide grafting solution was injected between the hydrogel and the new piece of glass and photocrosslinked to the top of the PEGDA hydrogel under the UV lamp for 7 min. PEG-peptide grafted hydrogels were then rinsed and swollen in sterile PBS for experiments.
To identify whether a cell is rolling, the upper velocity cutoff was determined by flowing ECFCs across the surface of control PEG hydrogels at different shear rates. Using video recordings, ECFC rotation on the focal plane of PEG hydrogels was observed. […] Therefore, based on these experiments, 40% of average fluid flow velocity was used as the cutoff velocity for cell rolling as is shown in FIG. 12.

Experiment [4] shares this test system. Nature of the experiment: ECFC capture on peptide-grafted PEG hydrogels under shear. The class given is cell-based. As to conditions: 20 s^−1; for ECFC capture events (in words): low shear rate; for ECFCs captured (captured cells normalized to total cells interacting with hydrogel surface): 2 min recordings, total 0.7 μmol/mL peptide grafted (combinations 0.35/0.35 μmol/mL), mean±SD (n=3). Here is the method: as §1
Cell capture events were consistently observed on CRRETAWAC (SEQ ID NO:1)- and PRb (SEQ ID NO:18)-grafted hydrogels at 20 s^−1. Number of captured cells were counted and normalized to the total number of cells interacted with each hydrogel surface. During each of the 2 min recordings, 3.74%±1.0% of ECFCs were captured on CRRETAWAC (SEQ ID NO:1)-grafted hydrogels and 1.14%±0.2% of ECFCs were captured on PRb-grafted hydrogels FIG. 9. Since both of these novel peptides are specific for the integrin α5β1, the result of this study strongly supports that α5β1 is responsible for cell capture.
To further evaluate the potential use of CRRETAWAC (SEQ ID NO:1) and PRb in the ECFC capture for endothelialization, ECFC rolling on hydrogels that were grafted with combinations of CRRETAWAC (SEQ ID NO:1) or PRb (SEQ ID NO:18) with REDV (SEQ ID NO:2) was assessed. In order to maintain consistent grafting of peptides, a final concentrations of 0.7 μmol/mL of equal molar mixtures of acryloyl-PEG-peptides precursors were grafted onto the surface of PEG hydrogels.

Experiment [5] deals with integrin α5β1 (Homo sapiens, UniProt P05556+P08648). As to conditions: among the non-RGD containing peptides of the library; cited from earlier work.
Sequence of integrin α5β1 (P08648 42-894 limits assumed): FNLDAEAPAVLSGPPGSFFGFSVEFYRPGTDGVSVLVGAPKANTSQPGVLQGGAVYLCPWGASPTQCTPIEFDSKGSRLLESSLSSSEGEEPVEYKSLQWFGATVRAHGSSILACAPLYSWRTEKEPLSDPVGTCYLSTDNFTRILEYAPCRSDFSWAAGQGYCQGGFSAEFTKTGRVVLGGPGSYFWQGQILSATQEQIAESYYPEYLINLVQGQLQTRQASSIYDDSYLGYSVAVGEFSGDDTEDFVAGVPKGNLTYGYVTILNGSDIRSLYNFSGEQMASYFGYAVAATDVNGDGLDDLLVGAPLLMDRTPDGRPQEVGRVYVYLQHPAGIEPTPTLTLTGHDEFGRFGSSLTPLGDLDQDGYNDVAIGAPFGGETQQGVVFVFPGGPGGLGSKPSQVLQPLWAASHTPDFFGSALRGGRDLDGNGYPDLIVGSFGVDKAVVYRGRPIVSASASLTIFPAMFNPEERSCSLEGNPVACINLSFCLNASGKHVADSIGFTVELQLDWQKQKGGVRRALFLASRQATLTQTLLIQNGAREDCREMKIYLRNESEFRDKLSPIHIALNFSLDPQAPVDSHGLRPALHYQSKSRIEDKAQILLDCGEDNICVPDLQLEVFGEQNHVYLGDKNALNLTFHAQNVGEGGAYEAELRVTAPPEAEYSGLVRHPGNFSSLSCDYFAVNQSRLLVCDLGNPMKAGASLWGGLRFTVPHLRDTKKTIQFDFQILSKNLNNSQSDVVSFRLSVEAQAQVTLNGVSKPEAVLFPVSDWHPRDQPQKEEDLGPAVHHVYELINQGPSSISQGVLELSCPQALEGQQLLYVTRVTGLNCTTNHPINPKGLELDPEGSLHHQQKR
Sequence of integrin α5β1 (P08648 895-1049 partner limits assumed): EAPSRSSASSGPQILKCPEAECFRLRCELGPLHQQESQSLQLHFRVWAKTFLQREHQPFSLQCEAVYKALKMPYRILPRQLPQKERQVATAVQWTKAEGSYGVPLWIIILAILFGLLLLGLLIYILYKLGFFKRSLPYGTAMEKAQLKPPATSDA
Sequence of integrin α5β1 (P05556 21-798): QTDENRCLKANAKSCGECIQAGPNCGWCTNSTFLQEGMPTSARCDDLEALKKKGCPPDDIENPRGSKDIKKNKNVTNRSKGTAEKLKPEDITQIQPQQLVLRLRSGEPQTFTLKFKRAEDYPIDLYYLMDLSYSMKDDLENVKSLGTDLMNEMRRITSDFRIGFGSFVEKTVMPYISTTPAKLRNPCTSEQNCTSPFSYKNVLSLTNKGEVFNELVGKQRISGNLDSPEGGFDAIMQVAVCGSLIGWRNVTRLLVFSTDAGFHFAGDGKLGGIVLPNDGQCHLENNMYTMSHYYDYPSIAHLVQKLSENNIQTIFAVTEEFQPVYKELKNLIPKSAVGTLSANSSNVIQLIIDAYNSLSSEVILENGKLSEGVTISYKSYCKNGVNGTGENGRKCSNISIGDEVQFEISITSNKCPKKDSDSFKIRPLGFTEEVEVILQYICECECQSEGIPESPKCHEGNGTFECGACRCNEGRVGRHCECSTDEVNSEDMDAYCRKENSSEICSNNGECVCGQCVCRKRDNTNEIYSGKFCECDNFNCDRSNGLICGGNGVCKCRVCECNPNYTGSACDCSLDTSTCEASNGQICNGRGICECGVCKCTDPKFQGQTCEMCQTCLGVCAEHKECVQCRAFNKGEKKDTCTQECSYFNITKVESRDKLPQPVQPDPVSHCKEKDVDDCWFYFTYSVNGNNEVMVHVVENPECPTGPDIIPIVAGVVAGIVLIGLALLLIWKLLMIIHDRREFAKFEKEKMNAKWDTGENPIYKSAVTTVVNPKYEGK

These results are taken from patent US10568992B2, “Peptides for supporting endothelial progenitor cell rolling and capture and endothelialization of biomaterials” (Auburn University, priority 2015, dated 2020).

Bridges are numbered along the chain shown (N, C = ends). Where no end group is shown, it is not given here.

Regarding “HSDVHK [Peptide P11, synthesized as HSDVHKG]”, the “ECFC adhesion and spreading” value in experiment [1] is recorded as “only able to support ECFC adhesion, but not spreading”. In addition, the “ECFC monolayer formation and cobble stone morphology” value in experiment [1] was “not”. In experiment [2], the “competition with fluorescently labeled VN for αvβ3” value is recorded as “most competitive for αvβ3”. In addition, the ECFC rolling velocity in experiment [3] (shear rate 20 1/s) was determined as 127.5; in experiment [3] (shear rate 40 1/s) it was 251.0 ± 41.2; in experiment [3] (shear rate 80 1/s), 508.0 ± 86.5; in experiment [3] (shear rate 120 1/s) it was 787.6 ± 102.1.
For the substance REDV (also: PEG conjugate), in experiment [4], the “ECFC capture events (in words)” value is recorded as “does not support capture even at low shear rates”. In experiment [1], the “ECFC monolayer formation and cobble stone morphology” value was “not”. Also, the ECFC rolling velocities in experiment [3] (20 s^−1) is listed as 79±4 μm s^−1; in experiment [3] (40 s^−1) it was 181±6 μm s^−1; in experiment [3] (80 s^−1) it was 357±6 μm s^−1; in experiment [3] (120 s^−1) it was 560±15 μm s^−1. For the same substance, the ECFC rolling velocity came out at 78.6 in experiment [3] (shear rate 20 1/s), 183.3 ± 43.4 in experiment [3] (shear rate 40 1/s), 353.8 ± 82.0 in experiment [3] (shear rate 80 1/s) and 564.3 ± 177.0 in experiment [3] (shear rate 120 1/s). In experiment [3], the “support of ECFC rolling (velocity below rolling cutoff, 40% of average fluid velocity)” value is reported as “supported ECFC rolling”.
For PHSRNSGSGSGSGSGRGDSG [PRb], in experiment [4], the “ECFCs captured (captured cells normalized to total cells interacting with hydrogel surface)” value came out at 1.14%. Further, the “ECFC adhesion and spreading” value in experiment [1] is “supported ECFC adhesion and spreading”. Moreover, the “ECFC monolayer formation and cobble stone morphology” value in experiment [1] is “able to form monolayer and maintain cobble stone morphology”. Also, the ECFC rolling velocity in experiment [3] (shear rate 20 1/s) is reported as 110.3; in experiment [3] (shear rate 40 1/s), 235.0 ± 36.1; in experiment [3] (shear rate 80 1/s) it was 485.7 ± 67.5; in experiment [3] (shear rate 120 1/s), 735.1 ± 102.6.
As for “RGDS (also: PEG conjugate) [ubiquitous cell adhesion peptide]”, the “ECFC capture events (in words)” value in experiment [4] is “Some ECFC capture events were observed”. In experiment [1], the “ECFC monolayer formation and cobble stone morphology” value is “able to form monolayer and maintain cobble stone morphology”. The “rolling velocities of ECFCs” value in experiment [3] (20 s^−1) is given as 103±3 μm/s; in experiment [3] (40 s^−1) it was 223±14 μm/s; in experiment [3] (80 s^−1) it was 469±38 μm/s; in experiment [3] (120 s^−1), 741±28 μm/s. In addition, the ECFC rolling velocity was determined as 102.2 in experiment [3] (shear rate 20 1/s), 218.7 ± 42.4 in experiment [3] (shear rate 40 1/s), 455.8 ± 86.7 in experiment [3] (shear rate 80 1/s) and 739.7 ± 121.9 in experiment [3] (shear rate 120 1/s). For the same substance, in experiment [3], the “support of ECFC rolling (velocity below rolling cutoff, 40% of average fluid velocity)” value was “supported ECFC rolling at all shear rates”.
For “CRRETAWAC (disulfide 1-9 (inferred); also: grafted on PEG hydrogel via acryloyl-PEG)”, the “affinity to α5β1” value in experiment [5] was “highest affinity”. Further, the “ECFCs captured (captured cells normalized to total cells interacting with hydrogel surface)” value in experiment [4] stood at 3.74%. Also, the “ECFC adhesion and spreading” value in experiment [1] was “supported ECFC adhesion and spreading”. For the same substance, the “ECFC monolayer formation and cobble stone morphology” value in experiment [1] is “able to form monolayer and maintain cobble stone morphology”. The ECFC rolling velocity in experiment [3] (shear rate 20 1/s) was determined as 131.6; in experiment [3] (shear rate 40 1/s) it was 278.4 ± 28.6; in experiment [3] (shear rate 80 1/s), 550.6 ± 64.1; in experiment [3] (shear rate 120 1/s) it was 828.4 ± 82.7.
Consider RGES (also: PEG conjugate), for which the “support of ECFC rolling (velocity below rolling cutoff, 40% of average fluid velocity)” value in experiment [3] was “did not support ECFC rolling”.
Consider YIGSRG (also: PEG conjugate), for which the “ECFC monolayer formation and cobble stone morphology” value in experiment [1] is on record as “not”. Besides, the ECFC rolling velocities in experiment [3] (20 s^−1) was 102±9 μm s^−1; in experiment [3] (40 s^−1) it was 223±22 μm s^−1; in experiment [3] (80 s^−1) it was 484±12 μm s^−1; in experiment [3] (120 s^−1) it was 740±10 μm s^−1. Further, the ECFC rolling velocity is 103.2 in experiment [3] (shear rate 20 1/s), 223.2 ± 38.0 in experiment [3] (shear rate 40 1/s), 487.6 ± 72.5 in experiment [3] (shear rate 80 1/s) and 737.0 ± 107.9 in experiment [3] (shear rate 120 1/s). The “support of ECFC rolling (velocity below rolling cutoff, 40% of average fluid velocity)” value in experiment [3] is given as “supported ECFC rolling”.
